According to PubChem BioAssay AID1259407 (Chemical Carcinogenesis Research Information System (CCRIS), 2018):
The source made the active and inactive calls. The rule behind the calls is not given here.

Test system: CCRIS mutagenicity, Ames/micronucleus/aberration tests
Assay: CCRIS mutagenicity studies
[1] = Test System: AMES SALMONELLA TYPHIMURIUM, Strain/Indicator: TA98, Metabolic Activation: NONE, Method: STANDARD PLATE
[2] = Test System: AMES SALMONELLA TYPHIMURIUM, Strain/Indicator: TA100, Metabolic Activation: NONE, Method: STANDARD PLATE
[3] = Test System: AMES SALMONELLA TYPHIMURIUM, Strain/Indicator: TA98, Metabolic Activation: HAMSTER, LIVER, S-9, AROCLOR 1254, Method: STANDARD PLATE
[4] = Test System: AMES SALMONELLA TYPHIMURIUM, Strain/Indicator: TA98, Metabolic Activation: RAT, LIVER, S-9, AROCLOR 1254, Method: STANDARD PLATE
[5] = Test System: AMES SALMONELLA TYPHIMURIUM, Strain/Indicator: TA100, Metabolic Activation: RAT, LIVER, S-9, AROCLOR 1254, Method: STANDARD PLATE
[6] = Test System: AMES SALMONELLA TYPHIMURIUM, Strain/Indicator: TA1535, Metabolic Activation: NONE, Method: STANDARD PLATE
[7] = Test System: AMES SALMONELLA TYPHIMURIUM, Strain/Indicator: TA1537, Metabolic Activation: NONE, Method: STANDARD PLATE
[8] = Test System: AMES SALMONELLA TYPHIMURIUM, Strain/Indicator: TA1537, Metabolic Activation: RAT, LIVER, S-9, AROCLOR 1254, Method: STANDARD PLATE
[9] = Test System: AMES SALMONELLA TYPHIMURIUM, Strain/Indicator: TA1538, Metabolic Activation: NONE, Method: STANDARD PLATE
[10] = Test System: AMES SALMONELLA TYPHIMURIUM, Strain/Indicator: TA1538, Metabolic Activation: RAT, LIVER, S-9, AROCLOR 1254, Method: STANDARD PLATE
[11] = Test System: AMES SALMONELLA TYPHIMURIUM, Strain/Indicator: TA1535, Metabolic Activation: RAT, LIVER, S-9, AROCLOR 1254, Method: STANDARD PLATE

## O=[N+]([O-])C(Br)Br
Test System: Ames Salmonella typhimurium, Strain/Indicator: RSJ100, Metabolic Activation: None, Method: Standard plate
  mutagenic call: inactive; negative
Test System: Ames Salmonella typhimurium, Strain/Indicator: RSJ100, Metabolic Activation: Rat, Liver, S-9, Aroclor, Method: Standard plate
  mutagenic call: inactive; negative
Test System: Ames Salmonella typhimurium, Strain/Indicator: TA98, Metabolic Activation: None, Method: Standard plate
  mutagenic call: inactive; negative
Test System: Ames Salmonella typhimurium, Strain/Indicator: TA98, Metabolic Activation: Rat, Liver, S-9, Aroclor, Method: Standard plate
  mutagenic call: inactive; negative
Test System: Ames Salmonella typhimurium, Strain/Indicator: TA100, Metabolic Activation: None, Method: Standard plate
  mutagenic call: active; positive
Test System: Ames Salmonella typhimurium, Strain/Indicator: TA100, Metabolic Activation: Rat, Liver, S-9, Aroclor, Method: Standard plate
  mutagenic call: active; positive
Test System: Ames Salmonella typhimurium, Strain/Indicator: TA104, Metabolic Activation: None, Method: Standard plate
  mutagenic call: inactive; negative
Test System: Ames Salmonella typhimurium, Strain/Indicator: TA104, Metabolic Activation: Rat, Liver, S-9, Aroclor, Method: Standard plate
  mutagenic call: inactive; negative
Test System: Ames Salmonella typhimurium, Strain/Indicator: TPT100, Metabolic Activation: None, Method: Standard plate
  mutagenic call: inactive; negative

## Fc1cc2ccccc2c2ncccc12
Test System: AMES SALMONELLA TYPHIMURIUM, Strain/Indicator: TA100, Metabolic Activation: RAT, LIVER, S-9, PHENOBARBITAL AND 5,6-BENZOFLAVONE, Method: PREINCUBATION
  mutagenic call: active; positive

## CCC1(C)CO1 (centres undefined)
[1]
  mutagenic call: inactive; negative
[2]
  mutagenic call: inactive; negative

## CC(=O)O[C@@H]1C(=O)O[C@H]2[C@@H]1OC(=O)[C@@H]2OC(C)=O
[1]
  mutagenic call: inactive; negative
Test System: AMES SALMONELLA TYPHIMURIUM, Strain/Indicator: TA98, Metabolic Activation: S-9, Method: STANDARD PLATE
  mutagenic call: inactive; negative
[2]
  mutagenic call: inactive; negative
Test System: AMES SALMONELLA TYPHIMURIUM, Strain/Indicator: TA100, Metabolic Activation: S-9, Method: STANDARD PLATE
  mutagenic call: inactive; negative
Test System: AMES SALMONELLA TYPHIMURIUM, Strain/Indicator: TA1537, Metabolic Activation: S-9, Method: STANDARD PLATE
  mutagenic call: inactive; negative
Test System: E. COLI, Strain/Indicator: WP2 (HCR), Metabolic Activation: NONE, Method: STANDARD PLATE
  mutagenic call: inactive; negative
Test System: E. COLI, Strain/Indicator: WP2 (HCR), Metabolic Activation: S-9, Method: STANDARD PLATE
  mutagenic call: inactive; negative

## CNC(=O)Oc1ccccc1OC(C)C
[3]
  mutagenic call: inactive; negative
[1]
  mutagenic call: inactive; negative
[4]
  mutagenic call: inactive; negative
Test System: AMES SALMONELLA TYPHIMURIUM, Strain/Indicator: TA100, Metabolic Activation: HAMSTER, LIVER, S-9, AROCLOR 1254, Method: STANDARD PLATE
  mutagenic call: inactive; negative
[2]
  mutagenic call: inactive; negative
[5]
  mutagenic call: inactive; negative
[6]
  mutagenic call: active; positive
[7]
  mutagenic call: inactive; negative
[8]
  mutagenic call: inactive; negative
Test System: AMES SALMONELLA TYPHIMURIUM, Strain/Indicator: TA1538, Metabolic Activation: HAMSTER, LIVER, S-9, AROCLOR 1254, Method: STANDARD PLATE
  mutagenic call: inactive; negative
[9]
  mutagenic call: inactive; negative
[10]
  mutagenic call: inactive; negative
Test System: CHINESE HAMSTER V-79, Strain/Indicator: V-79(HPRT)/6-THIOGUANINE, Metabolic Activation: NONE
  mutagenic call: inactive; negative
Test System: MOUSE LYMPHOMA, Strain/Indicator: L5178Y (TK+/TK-), Metabolic Activation: NONE, Method: SUSPENSION/PLATE
  mutagenic call: active; positive. reevaluation of results: positive
Test System: MOUSE LYMPHOMA, Strain/Indicator: L5178Y (TK+/TK-), Metabolic Activation: RAT, LIVER, S-9, AROCLOR 1254, Method: SUSPENSION/PLATE
  mutagenic call: active; positive. reevaluation of results: positive

## ClC1C(Cl)C(Cl)C(Cl)C(Cl)C1Cl (centres undefined)
End Point: IN VITRO CHROMOSOMAL ABERRATIONS, Test System: HUMAN PERIPHERAL BLOOD LYMPHOCYTES, Metabolic Activation: NONE
  mutagenic call: active; positive (structural changes)
Test System: AMES SALMONELLA TYPHIMURIUM, Strain/Indicator: TA97, Metabolic Activation: NONE, Method: STANDARD PLATE
  mutagenic call: inactive; negative
Test System: AMES SALMONELLA TYPHIMURIUM, Strain/Indicator: TA97, Metabolic Activation: RAT, LIVER, S-9, AROCLOR 1254, Method: STANDARD PLATE
  mutagenic call: inactive; negative
[1]
  mutagenic call: inactive; negative
[2]
  mutagenic call: inactive; negative
[5]
  mutagenic call: inactive; negative
Test System: AMES SALMONELLA TYPHIMURIUM, Strain/Indicator: TA102, Metabolic Activation: NONE, Method: STANDARD PLATE
  mutagenic call: inactive; negative
Test System: AMES SALMONELLA TYPHIMURIUM, Strain/Indicator: TA102, Metabolic Activation: RAT, LIVER, S-9, AROCLOR 1254, Method: STANDARD PLATE
  mutagenic call: inactive; negative
Test System: CHINESE HAMSTER OVARY, Strain/Indicator: CHO (HPRT)/6-THIOGUANINE, Metabolic Activation: NONE
  mutagenic call: inactive; negative
Test System: CHINESE HAMSTER OVARY, Strain/Indicator: CHO (HPRT)/6-THIOGUANINE, Metabolic Activation: S-9
  mutagenic call: inactive; negative
Test System: UDS HUMAN HEPATOCYTES, Strain/Indicator: THY INCORP, Metabolic Activation: NONE, Method: AUTORADIOGRAPHY
  mutagenic call: inactive; negative
Test System: UDS MOUSE HEPATOCYTES, Strain/Indicator: THY INCORP, Metabolic Activation: NONE, Method: AUTORADIOGRAPHY
  mutagenic call: inactive; negative
Test System: UDS RAT HEPATOCYTES, Strain/Indicator: THY INCORP, Metabolic Activation: NONE, Method: AUTORADIOGRAPHY
  mutagenic call: inactive; negative

## Cc1cc(N(CCO)CCO)ccc1N=Nc1ccc(N)cc1
[3]
  mutagenic call: inactive; negative
[1]
  mutagenic call: inactive; negative
Test System: AMES SALMONELLA TYPHIMURIUM, Strain/Indicator: TA98, Metabolic Activation: RAT, LIVER, S-9, AROCLOR 1254, Method: PREINCUBATION
  mutagenic call: inactive; negative
[4]
  mutagenic call: inactive; negative
[2]
  mutagenic call: inactive; negative
[5]
  mutagenic call: inactive; negative
[6]
  mutagenic call: inactive; negative
[11]
  mutagenic call: inactive; negative
[7]
  mutagenic call: inactive; negative
[8]
  mutagenic call: inactive; negative
[9]
  mutagenic call: inactive; negative
[10]
  mutagenic call: inactive; negative

## CN(C)CCNC(=O)c1cccc2c1Nc1ccccc1O2
[7]
  mutagenic call: active; positive

## CCC(=O)N(c1ccc(Cl)c(Cl)c1)[C@@H]1CCC[C@H]1N(C)C
[1]
  mutagenic call: inactive; negative
[4]
  mutagenic call: inactive; negative
[2]
  mutagenic call: inactive; negative
[5]
  mutagenic call: inactive; negative
[6]
  mutagenic call: inactive; negative
[11]
  mutagenic call: inactive; negative
[7]
  mutagenic call: inactive; negative
[8]
  mutagenic call: inactive; negative
[9]
  mutagenic call: inactive; negative
[10]
  mutagenic call: inactive; negative
Test System: CHINESE HAMSTER OVARY, Strain/Indicator: CHO-K1-BH4 (HGPRT), Metabolic Activation: NONE
  mutagenic call: inactive; negative
Test System: CHINESE HAMSTER V-79, Strain/Indicator: V-79/6-THIOGUANINE, Metabolic Activation: NONE
  mutagenic call: inactive; negative
Test System: CHINESE HAMSTER V-79, Strain/Indicator: V-79/6-THIOGUANINE, Metabolic Activation: RAT, LIVER, S-9, AROCLOR 1254
  mutagenic call: inactive; negative
Test System: UDS RODENT HEPATOCYTES, Strain/Indicator: THY INCORP, Metabolic Activation: NONE
  mutagenic call: inactive; negative
